The values below come from patent publication US8728797B2, “Yeast membrane protein expression system and its application in drug screening” (priority 2001, dated 2014).

Broadly, the MIC is the lowest concentration that inhibits growth of the organism. Higher therefore signals weaker potency. By MIC80 is commonly meant an inhibitory concentration at the 80% level, which refers to growth in some studies and to a panel of isolates in others. Lower therefore signals greater potency.

In one experiment the test system is AD-PDR5 (Pdr5p). Nature of the experiment: MIC in liquid microdilution assay, AD-PDR5. The class given is cell-based, S. cerevisiae. Particulars: Saccharomyces cerevisiae. The method, then: (§1) The MICs of antifungal agents for S. cerevisiae cells were determined by a microdilution test based on the macrodilution reference method of the National Committee for Clinical Laboratory Standards. Cells (10 μl cell suspension, 2×10^5 cells/ml) were inoculated into 90 μl CSM-URA, buffered with 10 mM 2-(N-morpholino)ethanesulfonic acid (MES) and 18 mM N-2-hydroxyethylpiperazine-N′-2-ethanesulfonic acid (HEPES), pH 7.0 and containing 0.67% (w/v) yeast nitrogen base (YNB) in microtitre plate wells. For the uracil-requiring strain AD1-8u^− the medium was supplemented with 0.02% (w/v) uridine. The wells contained, in […], doubling dilutions of antifungal agents (final concentrations: fluconazole, 40-0.078 μg/ml; itraconazole and ketoconazole, 8-0.016 μg/ml). The microtitre plates were incubated at 30° C. for 48 h with shaking and then the growth of cells in individual wells (OD590) was measured with a microplate reader (EL 340, Bio-Tek, Winooski, Vt.). The MIC80 was the lowest concentration of drug that inhibited growth yield by at least 80% compared to a no-drug control.

A further experiment deals with AD1002 cells. The experiment can be described thus: Glucose-dependent rhodamine 6G efflux. It is filed as cell-based, S. cerevisiae. The note with it: fluconazole 10 μM in preincubation and all later steps; 10 min after glucose.
Experiment [1] relates to S. cerevisiae AD1-8u^− hyper-expressing CDR1-2. The experiment can be described thus: MIC, CDR1 allele 2 hyper-expressed. The note with it: Saccharomyces cerevisiae; hyper-expression of CDR1-2 allele. It is filed as cell-based. The method, then: as §1
Another experiment relates to AD-pABC3. The experiment can be described thus: MIC in liquid microdilution assay, AD-pABC3 control. The class given is cell-based, S. cerevisiae. The note with it: Saccharomyces cerevisiae; AD-pABC3 negative control strain. The method, then: as §1
For orientation: Broth dilution looks for growth in wells or tubes with falling amounts of substance.

For experiment [2], the system named is initial construct in AD1-8u^− with barely detectable Cdr1p. The experiment can be described thus: MIC, initial defective Cdr1p construct. The class given is cell-based, S. cerevisiae. The note with it: Saccharomyces cerevisiae. The method, then:
as §1

A further experiment concerns AD-CDR1 (Cdr1p). Nature of the experiment: MIC in liquid microdilution assay, AD-CDR1. It is filed as cell-based, S. cerevisiae. The note with it: Saccharomyces cerevisiae. The method, then: as §1
Experiment [3] has as its system selected respiratory competent construct expressing Cdr1p. The experiment can be described thus: MIC, corrected Cdr1p construct. The note with it: Saccharomyces cerevisiae; construct corrected with linear PCR fragment. It is filed as cell-based, S. cerevisiae. The method, then:
as §1

Experiment [4] relates to AD1-8u^− derivative transformed with C. glabrata PDH1. Nature of the experiment: MIC, PDH1 construct. It is filed as cell-based, S. cerevisiae. Particulars: Nakaseomyces glabratus; PDH1 hyper-expressed. The method, then:
as §1

The subject of a further experiment is S. cerevisiae AD1-8/CDR2. Nature of the experiment: MIC microdilution test, strain expressing Cdr2p. The note with it: Saccharomyces cerevisiae, AD18/CDR2, 30° C. The class given is cell-based. The method, then:
as §1

The test system of experiment [5] is S. cerevisiae AD1-8 sec6-4. Nature of the experiment: MIC microdilution test, sec6-4 host. It is filed as cell-based. Particulars: Saccharomyces cerevisiae, AD18SEC64, 30° C. The method, then: as §1
The test system of experiment [6] is S. cerevisiae AD1002 expressing C. albicans Cdr1p. Nature of the experiment: MIC microdilution test, strain expressing Cdr1p. It is filed as cell-based. The method, then:
as §1

A further experiment deals with AD1002. The experiment can be described thus: Disk drug susceptibility assay of chemosensitisation to fluconazole. The class given is cell-based, S. cerevisiae. The note with it: 5 μg/ml fluconazole, 12 nanomole peptide on disk. The method, then:
(A) Checkerboard drug susceptibility assay of AD1002. This assay was conducted as described in Materials and methods in the presence of the indicated concentrations of fluconazole and KN20. (B) Disk drug susceptibility assay of AD1002. This assay was conducted, as described in Materials and methods for Example 4, in the absence or presence of 5 μg/ml fluconazole, with (1) KN0 (12 nanomole), (2) KN20 (12 nanomole) or (0) control amounts of DMSO applied to the disks. (C) Checkerboard drug susceptibility assay of ATCC 10261. This assay was conducted, as described in Material and methods for Example 4, in the presence of the indicated concentrations of fluconazole and KN20. D indicates cell death as measured by a failure to recover any colony forming units when samples from microtitre plate wells were cultured on solid YPD medium.
Drug susceptibility was measured using disk assays on CSM-URA plates (containing 1.5% w/v agar). Plates were seeded with yeast cells suspended in top agar (5 ml, 10^5 cells/ml). For the uracil-dependent parental strain, agar was supplemented with 0.02% uridine. Five microliters of drug solution or solvent control were spotted onto sterile Whatman paper disks on the top agar. […]

The target in experiment [7] is S. cerevisiae plasma membrane H^+-ATPase (Pma1p) (Saccharomyces cerevisiae, UniProt P05030). Nature of the experiment: Plasma membrane H+-ATPase inhibition. The class given is biochemical. Particulars: read-out: 150 for plasma membrane H^+-ATPase.

Converted amounts (≈) assume the structure as drawn. A value given as a limit tells only on which side of the number the result lay.

Chain of S. cerevisiae plasma membrane H^+-ATPase (Pma1p) (P05030 whole entry): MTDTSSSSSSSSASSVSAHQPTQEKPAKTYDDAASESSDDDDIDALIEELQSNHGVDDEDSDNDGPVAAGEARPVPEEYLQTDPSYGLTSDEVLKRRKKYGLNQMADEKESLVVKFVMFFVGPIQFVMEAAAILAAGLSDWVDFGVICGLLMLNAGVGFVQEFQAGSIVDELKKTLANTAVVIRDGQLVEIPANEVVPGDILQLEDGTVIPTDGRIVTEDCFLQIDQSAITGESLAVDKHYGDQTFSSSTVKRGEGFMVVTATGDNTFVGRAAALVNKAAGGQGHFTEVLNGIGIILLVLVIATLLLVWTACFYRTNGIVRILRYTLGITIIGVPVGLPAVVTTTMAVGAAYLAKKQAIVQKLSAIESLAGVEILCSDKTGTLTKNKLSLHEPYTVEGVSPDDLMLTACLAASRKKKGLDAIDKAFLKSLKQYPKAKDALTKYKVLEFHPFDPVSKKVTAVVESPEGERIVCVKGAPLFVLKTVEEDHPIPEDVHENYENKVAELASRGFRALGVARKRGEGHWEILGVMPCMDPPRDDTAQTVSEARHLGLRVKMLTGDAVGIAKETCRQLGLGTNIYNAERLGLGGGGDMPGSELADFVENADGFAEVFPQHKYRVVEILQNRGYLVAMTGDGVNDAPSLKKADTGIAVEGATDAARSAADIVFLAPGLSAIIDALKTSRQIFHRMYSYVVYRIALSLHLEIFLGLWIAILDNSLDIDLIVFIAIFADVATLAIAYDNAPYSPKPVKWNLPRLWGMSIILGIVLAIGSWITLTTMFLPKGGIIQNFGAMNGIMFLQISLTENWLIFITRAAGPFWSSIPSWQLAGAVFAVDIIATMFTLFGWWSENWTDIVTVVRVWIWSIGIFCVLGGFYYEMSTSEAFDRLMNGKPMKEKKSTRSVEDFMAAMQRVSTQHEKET
Protocol for AD1002 cells: The efflux of rhodamine 6G at 30° C. was followed by direct measurement of fluorescence in cell supernatants following glucose (2 mM) addition to cell suspensions. […] The indicated concentrations of KN20 were added to AD124567 cells preloaded with rhodamine 6G, the cells were preincubated for 5 minutes at 30° C. and glucose added to commence rhodamine efflux.
A previously described method (Kolaczkowski, M et al. 1996) was adapted to measure rhodamine 6G (Sigma) efflux from whole cells. Yeast cells from exponentially growing cultures in YEPD (OD600 nm=0.5) were collected by centrifugation (3,000×g, 5 min, 20° C.) and washed three times with water. The washed cells were resuspended at a concentration of 0.5×10^6 to 1.0×10^7 cells per ml in HEPES-NaOH (50 mM, pH 7.0) containing 5 mM 2-deoxyglucose and 10 μM rhodamine 6G. In some experiments fluconazole (10 μM) was also added. Cell suspensions were incubated at 30° C. with shaking for 90 min to allow rhodamine accumulation under glucose starvation conditions. The starved cells were washed twice in 50 mM HEPES-NaOH pH 7.0, and portions (400 μl) incubated at 30° C. for 5 min before addition of glucose (final concentration 2 mM) to initiate rhodamine efflux. […] The rhodamine 6G fluorescence of samples was measured using a Cary Eclipse spectrofluorimeter (Varian Inc, Victora Australia). […]

In the case of `OC(Cn1cncn1)(Cn1cncn1)c1ccc(F)cc1F` [fluconazole], the MIC came to 400 µg/mL (≈ 1310 µM) against AD-PDR5 (Pdr5p); 80 µg/mL (≈ 261 µM) in experiment [1]; 0.5 µg/mL (≈ 1.63 µM) in the experiment on AD-pABC3; 20 µg/mL (≈ 65.3 µM) in [2]; 400 µg/mL (≈ 1310 µM) in the experiment with AD-CDR1 (Cdr1p); 400 µg/mL (≈ 1310 µM) in [3]. The same compound came in with an MIC in experiment [4] of 200 µg/mL (≈ 653 µM). Also, the “reduction in the concentration of released rhodamine 6G” value in the experiment with AD1002 cells is on record as 32%. The MIC80 against S. cerevisiae AD1-8/CDR2 worked out at 64 µg/mL (≈ 209 µM); in experiment [5] it was 0.5 µg/mL (≈ 1.63 µM); in experiment [6] (AD1002 expressing Cdr1p, 30° C., 48 h, pH 7.0), 30 µg/mL (≈ 98 µM). Further, the “fold increase in MIC” value in [6] (AD1002 relative to parental AD1-8u^−) was over 45 fold.
For the compound “D-octapeptide NH2-Asn-Trp-Trp-Lys-Val-Arg-Arg-Arg-CONH2 with a single 4-methoxy-2,3,6-trimethylbenzenesulphonyl (Mtr) substituent on one tryptophan sidechain; Pdr5p inhibitor [KN20]”, the “chemosensitisation to fluconazole in disk assay” value with AD1002 was “chemosensitises”. The IC50 in experiment [7] amounted to 10 µM.
